The values below come from PMC6934184, “Selective DNA-PKcs inhibition extends the therapeutic index of localized radiotherapy and chemotherapy” (The Journal of Clinical Investigation, 2019).

The assay concerns the target T1, EPHA5 (Homo sapiens, UniProt P54756).
T1 construct: purchased Thermo Fisher Scientific (Life Technologies) SelectScreen
The assay can be described thus: SelectScreen Z'LYTE. It counts as biochemical. In a few lines: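 NU5455 was profiled across the SelectScreen Broad panel of kinase activity and binding assays. Z'LYTE reactions such as CSF1R ran at apparent Km ATP, while the Adapta CAMK1 assay used ATP listed as 10. Values are given as percent.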

The structures appear in SMILES notation.

T1 sequence (P54756 25-1037): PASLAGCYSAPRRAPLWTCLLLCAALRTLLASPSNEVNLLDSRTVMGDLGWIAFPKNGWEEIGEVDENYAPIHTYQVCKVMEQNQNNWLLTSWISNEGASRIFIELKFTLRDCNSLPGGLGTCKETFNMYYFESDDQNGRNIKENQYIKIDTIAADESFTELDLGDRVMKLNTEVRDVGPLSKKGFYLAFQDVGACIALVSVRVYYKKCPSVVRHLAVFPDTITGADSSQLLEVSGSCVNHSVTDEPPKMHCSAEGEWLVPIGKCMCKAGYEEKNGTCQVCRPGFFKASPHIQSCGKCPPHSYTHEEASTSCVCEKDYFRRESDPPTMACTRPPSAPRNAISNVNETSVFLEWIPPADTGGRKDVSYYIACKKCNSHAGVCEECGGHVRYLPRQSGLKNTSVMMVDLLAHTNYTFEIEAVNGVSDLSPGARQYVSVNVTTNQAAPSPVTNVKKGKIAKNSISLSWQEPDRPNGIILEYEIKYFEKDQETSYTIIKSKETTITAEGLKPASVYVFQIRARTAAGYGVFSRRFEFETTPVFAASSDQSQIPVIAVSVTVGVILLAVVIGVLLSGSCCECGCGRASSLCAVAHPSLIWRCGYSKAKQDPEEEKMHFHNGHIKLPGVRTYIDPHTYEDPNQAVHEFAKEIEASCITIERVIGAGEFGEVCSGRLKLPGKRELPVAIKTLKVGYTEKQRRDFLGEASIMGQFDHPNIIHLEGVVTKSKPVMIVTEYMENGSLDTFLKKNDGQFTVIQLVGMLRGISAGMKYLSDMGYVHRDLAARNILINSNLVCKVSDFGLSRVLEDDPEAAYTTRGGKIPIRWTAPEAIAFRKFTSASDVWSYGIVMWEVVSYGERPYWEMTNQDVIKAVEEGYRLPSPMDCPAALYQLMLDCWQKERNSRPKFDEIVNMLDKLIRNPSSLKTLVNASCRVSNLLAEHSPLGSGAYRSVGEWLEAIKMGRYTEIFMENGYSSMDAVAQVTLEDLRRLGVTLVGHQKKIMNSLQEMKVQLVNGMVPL

In turn, `CN(C(=O)CN1CCOCC1)c1ccc2sc3c(-c4cccc5c(=O)cc(N6CC7CCC(C6)O7)oc45)cccc3c2c1` [NU5455] displayed an inhibition at 1 µM of 5.1%.

The term inhibition denotes how much of the control response was suppressed. Read a high inhibition as a strong effect.
